Experimental data from patent publication US20120028358A1, “METHOD FOR INCREASING RETROVIRAL INFECTIVITY” (priority 2010, published 2012).
Entries after “also recorded” stand apart in the source; their conditions may differ.

How the values were obtained:
U87MG cells = assay: Amphotropic MMLV infection of U87MG cells; format: cell-based, human; conditions: 1 μmol/L, 72 hours
Protocol: Cell cultures: Phoenix Retroviral Expression System ecotropic and amphotropic packaging cells were purchased from Orbigen, Inc. (San Diego, Calif.). […] Rat pulmonary microvascular endothelial cells (PMVEC), were obtained from our cell culture core at the University of South Alabama (King J, et al. Structural and functional characteristics of lung macro and microvascular endothelial phenotypes. Microvascular Res. 2004, March, 67(2). 139-151). Human glioblastoma cells (U87MG), and human mammary carcinoma cells (T47D) were obtained from ATCC. All cells were cultured in DMEM, 10% FBS, 2 mmol L-Glutamine and used for experiments at passages 4-9. All cells were grown in humidified incubators at 37° C. in 5% CO2. Cells were harvested by 0.05% trypsin/0.53 mM EDTA digestion, washed, re-suspended in cultured medium and analyzed directly by FACScan in the University of South Alabama Flow Cytometry Core. For cell cycle analysis cellular DNA was stained with […] of propridium iodide for 20 minutes as described elsewhere (48) and then analyzed by FACScan.

Phoenix cells = assay: Viral titer of conditioned medium by quantitative RT-PCR (GFP region of viral RNA); format: cell-based
Protocol: Vectors and delivery systems: pBMN-GFP, a retroviral vector that expresses GFP driven by the MMLV's promoter in Phoenix and other cells was purchased from Orbigen, Inc. (San Diego, Calif.). Packaging cells were transfected with pBMN-GFP using FuGENE 6 reagent following manufacture instructions. Stably transfected Phoenix cells were selected by GFP expression using flow cytometry and then used for experiments. For virus propagation, packaging cells were cultured in growth medium for at least 12 hours. Virus was collected with cultured medium, filtered, supplemented with hexadimethrine bromide (polybrene) to a final concentration of 4 μg/ml and applied directly to target cells. The level of viral RNA in collected medium was determined by quantitative PCR using iScript One-Step RT-PCR kit (with SYBR Green, Bio-Rad, 170-8893) using primers for the GFP region of the viral RNA following manufacture instructions.
We first tested the ability of dexamethasone to increase retroviral protein production in Phoenix cells with integrated pro-viruses using GFP as a reporter. […] We then analyzed the Phoenix cells for GFP expression by flow cytometry. […] To determine if this increase in GFP expression correlated with an increase in viral titer in the supernatant, we performed quantitative RT-PCR on the conditioned medium using primers for the GFP region of the viral RNA.

Q: Which results are given for `CC#C[C@]1(O)CC[C@H]2[C@@H]3CCC4=CC(=O)CCC4=C3[C@@H](c3ccc(N(C)C)cc3)C[C@@]21C` [mifepristone, 11-beta-(4-dimethylaminophenyl)-17-beta-hydroxy-17-alpha-(1-propynyl)-estra-4,9-dien-3-one]?
A: Retroviral infectivity (U87MG cells): increased; Effect on enhancing effect of dexamethasone on virus production (Phoenix cells; dexamethasone and mifepristone added to packaging cells at the same time): partially blocks; also recorded: completely inhibited; Viral levels in the medium (Phoenix cells; mifepristone 0-20 μmol, without dexamethasone): no effect
